We go through 16 molecules from US20240226115A1, “AXL INHIBITOR COMPOUNDS” (ARCUS BIOSCIENCES, INC., priority 2021, published 2024).

pIC50: −log10 of the molar value.

As usually defined, the pIC50 is the negative decadic logarithm of the IC50, by convention in mol/L.

For experiment [1], the target named is T1, recombinant human TYRO3 (Homo sapiens, UniProt Q06418).
T1 construct: purchased Invitrogen
T1 sequence (Q06418 41-890): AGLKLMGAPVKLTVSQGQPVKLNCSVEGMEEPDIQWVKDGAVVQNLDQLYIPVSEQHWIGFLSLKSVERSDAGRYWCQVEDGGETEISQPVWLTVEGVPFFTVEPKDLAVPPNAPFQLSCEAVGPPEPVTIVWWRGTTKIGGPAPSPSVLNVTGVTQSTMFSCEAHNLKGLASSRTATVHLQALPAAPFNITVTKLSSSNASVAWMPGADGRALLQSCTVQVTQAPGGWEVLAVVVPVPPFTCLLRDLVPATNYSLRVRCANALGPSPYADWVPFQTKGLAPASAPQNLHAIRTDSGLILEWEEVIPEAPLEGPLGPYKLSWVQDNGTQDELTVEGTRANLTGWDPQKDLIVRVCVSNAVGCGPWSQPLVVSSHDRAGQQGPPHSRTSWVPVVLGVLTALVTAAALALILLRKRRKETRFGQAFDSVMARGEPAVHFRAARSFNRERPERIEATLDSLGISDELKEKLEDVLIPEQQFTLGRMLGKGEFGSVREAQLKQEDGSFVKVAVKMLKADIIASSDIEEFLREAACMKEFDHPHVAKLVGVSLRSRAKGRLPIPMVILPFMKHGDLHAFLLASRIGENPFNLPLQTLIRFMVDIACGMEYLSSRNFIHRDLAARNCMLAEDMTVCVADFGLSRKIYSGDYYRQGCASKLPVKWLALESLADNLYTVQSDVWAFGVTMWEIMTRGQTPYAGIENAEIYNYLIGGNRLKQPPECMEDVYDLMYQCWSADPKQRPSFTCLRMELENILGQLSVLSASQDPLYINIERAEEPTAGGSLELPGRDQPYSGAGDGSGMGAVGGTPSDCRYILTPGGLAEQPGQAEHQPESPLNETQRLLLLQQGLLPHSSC
The experiment is described as follows: HTRF KinEASE-TK biochemical potency, TYRO3. As to conditions: 1 nM TYRO3, 700 μM ATP. Put shortly: (§1)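 Enzyme preincubated with compound 1 h at RT; final 5 nM AXL or 1 nM TYRO3/MER, 800 nM TK substrate-biotin, 700 μM ATP, HEPES pH 7.4, MgCl2, 1% DMSO, 2 h at RT. HTRF 665/620 ratio read after streptavidin-XL665/cryptate antibody detection; percent activity relative to DMSO and pre-stopped controls.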
For orientation: In TR-FRET formats the signal depends on donor and acceptor labels being close together.

For experiment [2], the target named is T2, recombinant human MER (Homo sapiens, UniProt Q12866).
T2 construct: purchased Invitrogen
T2 sequence (Q12866 21-999): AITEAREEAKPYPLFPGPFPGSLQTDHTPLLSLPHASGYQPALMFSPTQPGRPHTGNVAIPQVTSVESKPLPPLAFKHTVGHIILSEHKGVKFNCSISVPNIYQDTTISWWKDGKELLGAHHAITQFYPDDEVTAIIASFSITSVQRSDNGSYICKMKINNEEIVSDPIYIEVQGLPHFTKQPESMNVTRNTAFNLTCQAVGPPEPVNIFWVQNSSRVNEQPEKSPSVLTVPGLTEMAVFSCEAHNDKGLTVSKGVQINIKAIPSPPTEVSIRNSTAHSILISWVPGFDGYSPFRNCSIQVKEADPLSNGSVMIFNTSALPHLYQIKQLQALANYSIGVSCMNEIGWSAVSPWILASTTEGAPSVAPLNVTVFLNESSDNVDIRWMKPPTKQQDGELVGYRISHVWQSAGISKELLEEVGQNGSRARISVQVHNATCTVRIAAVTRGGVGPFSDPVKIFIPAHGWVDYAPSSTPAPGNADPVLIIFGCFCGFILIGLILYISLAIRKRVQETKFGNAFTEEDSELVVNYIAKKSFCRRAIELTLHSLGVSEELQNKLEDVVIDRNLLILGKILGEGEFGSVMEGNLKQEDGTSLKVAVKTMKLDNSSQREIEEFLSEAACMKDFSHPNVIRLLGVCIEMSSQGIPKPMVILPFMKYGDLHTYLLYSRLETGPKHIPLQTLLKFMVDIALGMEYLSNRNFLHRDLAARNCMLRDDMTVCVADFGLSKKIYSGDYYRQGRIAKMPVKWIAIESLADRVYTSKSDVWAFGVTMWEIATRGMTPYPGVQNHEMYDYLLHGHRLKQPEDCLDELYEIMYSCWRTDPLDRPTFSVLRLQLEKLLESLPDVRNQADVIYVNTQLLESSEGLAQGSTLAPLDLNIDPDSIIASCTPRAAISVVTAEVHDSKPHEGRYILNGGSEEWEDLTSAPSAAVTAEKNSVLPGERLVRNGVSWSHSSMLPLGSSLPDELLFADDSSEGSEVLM
The experiment is described as follows: HTRF KinEASE-TK biochemical potency, MER. To be noted: 1 nM MER, 700 μM ATP. The method, boiled down:
as §1

On to `C[C@H]1CCCN1C1CCc2ccc(-c3cnc4[nH]nc(-c5ccc6c(c5)OCCNC6=O)c4c3)cc2CC1` (stereo partly drawn) [Example 43, 8-(5-{7-[(2S)-2-Methylpyrrolidin-1-yl]-6,7,8,9-tetrahydro-5H-benzo[7]annulen-2-yl}-1H-pyrazolo[3,4-b]pyridin-3-yl)-2,3,4,5-tetrahydro-1,4-benzoxazepin-5-one], for which the pIC50 in experiment [1] and in experiment [2] was greater than 7.00 throughout.

As for `C[C@@H]1CCCN1C1CCc2ccc(-c3cnc4[nH]nc(-c5ccc6c(c5)OCCNC6=O)c4c3)cc2CC1` (stereo partly drawn) [Example 44, 8-(5-{7-[(2R)-2-Methylpyrrolidin-1-yl]-6,7,8,9-tetrahydro-5H-benzo[7]annulen-2-yl}-1H-pyrazolo[3,4-b]pyridin-3-yl)-2,3,4,5-tetrahydro-1,4-benzoxazepin-5-one], the pIC50 in experiment [1] and in experiment [2] was greater than 7.00 each time.

For `O=C1NCCOc2cc(-c3n[nH]c4ncc(-c5ccc6c(c5)CCC(N[C@H]5CCOC5)CC6)cc34)ccc21` (stereo partly drawn) [Example 45, 8-[5-(7-{[(3S)—Oxolan-3-yl]amino}-6,7,8,9-tetrahydro-5H-benzo[7]annulen-2-yl)-1H-pyrazolo[3,4-b]pyridin-3-yl]-2,3,4,5-tetrahydro-1,4-benzoxazepin-5-one], the pIC50 in experiment [1] and in experiment [2] was greater than 7.00 throughout.

On to `O=C1NCCOc2cc(-c3n[nH]c4ncc(-c5ccc6c(c5)CCC(N[C@@H]5CCOC5)CC6)cc34)ccc21` (stereo partly drawn) [Example 46, 8-[5-(7-{[(3R)—Oxolan-3-yl]amino}-6,7,8,9-tetrahydro-5H-benzo[7]annulen-2-yl)-1H-pyrazolo[3,4-b]pyridin-3-yl]-2,3,4,5-tetrahydro-1,4-benzoxazepin-5-one], for which the pIC50 in experiment [1] and in experiment [2] was greater than 7.00 throughout.

Take `O=C1NCCOc2cc(-c3n[nH]c4ncc(-c5ccc6c(c5)CCC(N5CCOCC5)CC6)cc34)ccc21` (centres unmarked) [Example 47, 8-{5-[7-(Morpholin-4-yl)-6,7,8,9-tetrahydro-5H-benzo[7]annulen-2-yl]-1H-pyrazolo[3,4-b]pyridin-3-yl}-2,3,4,5-tetrahydro-1,4-benzoxazepin-5-one]: the pIC50 in experiment [1] and in experiment [2] was greater than 7.00 each time.

Consider `O=C1NCCOc2cc(-c3n[nH]c4ncc(-c5ccc6c(c5)CCC(N5CCNCC5)CC6)cc34)ccc21` (centres unmarked) [Example 48, 8-{5-[7-(Piperazin-1-yl)-6,7,8,9-tetrahydro-5H-benzo[7]annulen-2-yl]-1H-pyrazolo[3,4-b]pyridin-3-yl}-2,3,4,5-tetrahydro-1,4-benzoxazepin-5-one], for which the negative logarithm of the IC50 (pIC50) in experiment [1] and in experiment [2] was greater than 7.00 throughout.

Turning to `O=C1NCCOc2cc(-c3n[nH]c4ncc(-c5ccc6c(c5)CCC(N5CCC[C@@H]5CO)CC6)cc34)ccc21` (stereo partly drawn) [Example 49, 8-(5-{7-[(2R)-2-(Hydroxymethyl)pyrrolidin-1-yl]-6,7,8,9-tetrahydro-5H-benzo[7]annulen-2-yl}-1H-pyrazolo[3,4-b]pyridin-3-yl)-2,3,4,5-tetrahydro-1,4-benzoxazepin-5-one], the pIC50 in experiment [1] and in experiment [2] was greater than 7.00 each time.

On to `O=C1NCCOc2cc(-c3n[nH]c4ncc(-c5ccc6c(c5)CCC(N5CCC[C@H]5CO)CC6)cc34)ccc21` (stereo partly drawn) [Example 50, 8-(5-{7-[(2S)-2-(Hydroxymethyl)pyrrolidin-1-yl]-6,7,8,9-tetrahydro-5H-benzo[7]annulen-2-yl}-1H-pyrazolo[3,4-b]pyridin-3-yl)-2,3,4,5-tetrahydro-1,4-benzoxazepin-5-one], for which the pIC50 in experiment [1] and in experiment [2] was greater than 7.00 throughout.

Regarding `O=C1NCCOc2cc(-c3n[nH]c4ncc(-c5ccc6c(c5)CCC(N5CC[C@@H](O)C5)CC6)cc34)ccc21` (stereo partly drawn) [Example 51, 8-(5-(7-((R)-3-Hydroxypyrrolidin-1-yl)-6,7,8,9-tetrahydro-5H-benzo[7]annulen-2-yl)-1H-pyrazolo[3,4-b]pyridin-3-yl)-3,4-dihydrobenzo[f][1,4]oxazepin-5(2H)-one], the pIC50 in experiment [1] is greater than 7.00; in experiment [2], 6.00 to 7.00.

In the case of `O=C1NCCOc2cc(-c3n[nH]c4ncc(-c5ccc6c(c5)CCC(N5CCC5)CC6)cc34)ccc21` (centres unmarked) [Example 52, 8-(5-(7-(Azetidin-1-yl)-6,7,8,9-tetrahydro-5H-benzo[7]annulen-2-yl)-1H-pyrazolo[3,4-b]pyridin-3-yl)-3,4-dihydrobenzo[f][1,4]oxazepin-5(2H)-one], the pIC50 in experiment [1] and in experiment [2] was greater than 7.00 in each case.

Regarding `O=C1NCCOc2cc(-c3n[nH]c4ncc(-c5ccc6c(c5)CCNCC6)cc34)ccc21` [Example 53, 8-(5-(2,3,4,5-Tetrahydro-1H-benzo[d]azepin-7-yl)-1H-pyrazolo[3,4-b]pyridin-3-yl)-3,4-dihydrobenzo[f][1,4]oxazepin-5(2H)-one], the pIC50 in experiment [1] and in experiment [2] was greater than 7.00 each time.

As to `O=C1NCCOc2cc(-c3n[nH]c4ncc(-c5ccc6c(c5)CCNC6)cc34)ccc21` [Example 54, 8-(5-(1,2,3,4-Tetrahydroisoquinolin-6-yl)-1H-pyrazolo[3,4-b]pyridin-3-yl)-3,4-dihydrobenzo[f][1,4]oxazepin-5(2H)-one], the results for the pIC50 in experiment [1] and in experiment [2] were greater than 7.00 and 6.00 to 7.00, respectively.

As to `O=C1NCCOc2cc(-c3n[nH]c4ncc(-c5ccc6c(c5)CNCC6)cc34)ccc21` [Example 55, 8-(5-(1,2,3,4-Tetrahydroisoquinolin-7-yl)-1H-pyrazolo[3,4-b]pyridin-3-yl)-3,4-dihydrobenzo[f][1,4]oxazepin-5(2H)-one], the figures for the pIC50 in experiment [1] and in experiment [2] were greater than 7.00 and 6.00 to 7.00, respectively.

Turning to `C[C@@H]1CCCN1C1CCc2cc(F)c(-c3cnc4[nH]nc(-c5ccc6c(c5)OCCNC6=O)c4c3)cc2CC1` (stereo partly drawn) [Example 58, 8-(5-{3-Fluoro-7-[(2R)-2-methylpyrrolidin-1-yl]-6,7,8,9-tetrahydro-5H-benzo[7]annulen-2-yl}-1H-pyrazolo[3,4-b]pyridin-3-yl)-2,3,4,5-tetrahydro-1,4-benzoxazepin-5-one], the pIC50 in experiment [1] and in experiment [2] was greater than 7.00 in each case.

With `C[C@@H]1CNC(=O)c2ccc(-c3n[nH]c4ncc(-c5ccc6c(c5)CCC(N5CCC[C@H]5C)CC6)cc34)cc2O1` (stereo partly drawn) [Example 59, (2R)-2-Methyl-8-(5-{7-[(2R)-2-methylpyrrolidin-1-yl]-6,7,8,9-tetrahydro-5H-benzo[7]annulen-2-yl}-1H-pyrazolo[3,4-b]pyridin-3-yl)-2,3,4,5-tetrahydro-1,4-benzoxazepin-5-one], the negative-log IC50 (pIC50) in experiment [1] and in experiment [2] was greater than 7.00 in each case.

Turning to `C[C@@H]1CCCN1C1CCc2ccc(-c3cnc4[nH]nc(-c5ccc6c(c5F)OCCNC6=O)c4c3)cc2CC1` (stereo partly drawn) [Example 60, 9-Fluoro-8-(5-{7-[(2R)-2-methylpyrrolidin-1-yl]-6,7,8,9-tetrahydro-5H-benzo[7]annulen-2-yl}-1H-pyrazolo[3,4-b]pyridin-3-yl)-2,3,4,5-tetrahydro-1,4-benzoxazepin-5-one], the pIC50 in experiment [1] and in experiment [2] was greater than 7.00 throughout.
